From article PMC3622084 (Biochemistry, 2013)
Values belong to the compound of their own block, whether it stands above or below them.

Columns and labels:
Experiment in all cases: Clark electrode O2 uptake, cytochrome c / ascorbate / TMPD
Format in all cases: biochemical
[1] = target: T1, Rhodobacter sphaeroides cytochrome c oxidase (RsCcO) (Cereibacter sphaeroides, UniProt P33517+Q03736, Q03736:E101A)
[2] = target: T1, Rhodobacter sphaeroides cytochrome c oxidase (RsCcO); remark: listed apart in the source
[3] = target: Rhodobacter sphaeroides cytochrome c oxidase (RsCcO) (Cereibacter sphaeroides, UniProt P33517+Q03736); settings: read-out: K1/2; inhibition; 0.01% DDM, pH 7.4, 30 μM bovine cytochrome c
Chain of Rhodobacter sphaeroides cytochrome c oxidase (RsCcO) (Cereibacter sphaeroides, UniProt P33517+Q03736) (P33517 whole entry): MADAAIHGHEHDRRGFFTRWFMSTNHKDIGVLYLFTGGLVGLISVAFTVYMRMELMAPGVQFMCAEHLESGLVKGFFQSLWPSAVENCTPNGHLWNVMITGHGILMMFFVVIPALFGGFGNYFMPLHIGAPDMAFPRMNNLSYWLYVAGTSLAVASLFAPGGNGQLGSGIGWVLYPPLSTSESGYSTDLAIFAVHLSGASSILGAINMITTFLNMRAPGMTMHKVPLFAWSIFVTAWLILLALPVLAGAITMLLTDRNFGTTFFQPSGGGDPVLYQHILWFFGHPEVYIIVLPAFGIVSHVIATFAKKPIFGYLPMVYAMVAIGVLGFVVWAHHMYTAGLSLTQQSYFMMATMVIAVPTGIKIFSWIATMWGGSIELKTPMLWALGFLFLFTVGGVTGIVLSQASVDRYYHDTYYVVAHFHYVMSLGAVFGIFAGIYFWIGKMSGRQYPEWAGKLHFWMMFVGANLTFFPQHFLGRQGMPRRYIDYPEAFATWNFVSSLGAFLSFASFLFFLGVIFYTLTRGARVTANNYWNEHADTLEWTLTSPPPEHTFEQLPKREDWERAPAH
Chain of Rhodobacter sphaeroides cytochrome c oxidase (RsCcO) (Cereibacter sphaeroides, UniProt P33517+Q03736) (Q03736 26-303 limits assumed): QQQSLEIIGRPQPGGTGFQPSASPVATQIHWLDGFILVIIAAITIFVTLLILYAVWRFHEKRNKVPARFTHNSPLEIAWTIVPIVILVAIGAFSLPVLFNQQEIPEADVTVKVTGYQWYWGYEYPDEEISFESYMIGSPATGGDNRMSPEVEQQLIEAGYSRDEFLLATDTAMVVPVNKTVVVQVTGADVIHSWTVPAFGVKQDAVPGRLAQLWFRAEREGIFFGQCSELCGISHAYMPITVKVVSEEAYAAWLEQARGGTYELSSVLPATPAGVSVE

T1 sequence (P33517 whole entry): as the sequence (P33517 whole entry) above
T1 sequence (Q03736 26-303 E101A limits assumed): as the sequence (Q03736 26-303 limits assumed) above, with E76A counted along it

Compound: C=CC1=C(C)/C(=C/c2[nH]c(Cc3[nH]c(/C=C4\NC(=O)C(C)=C4C=C)c(C)c3CCC(=O)O)c(CCC(=O)O)c2C)NC1=O [bilirubin]
- EC50 [1]: ~50 µM

Compound: C[C@H](CCC(=O)O)[C@H]1CC[C@H]2[C@@H]3[C@H](O)C[C@@H]4C[C@H](O)CC[C@]4(C)[C@H]3C[C@H](O)[C@]12C [cholate]
- EC50 [1]: 200 µM

Compound: CC(C)CCC[C@@H](C)[C@H]1CC[C@H]2[C@@H]3CC=C4C[C@@H](OC(=O)CCC(=O)O)CC[C@]4(C)[C@H]3CC[C@]12C [cholesteryl hemisuccinate]
- EC50 [1]: ~80 µM

Compound: CCCCCCCC/C=C\CCCCCCCC(=O)OC[C@@H](O)COP(=O)([O-])OCC[N+](C)(C)C [lyso-oleoyl phosphatidylcholine]
- IC50 [2]: ~17 µM

Compound: CC(C)CCCC(C)CCCC(C)CCCC(C)CC(=O)O (centres unmarked) [phytanic acid]
- EC50 [1]: ~4 µM

Compound: C=CC1=C(C)c2cc3[nH]c(cc4nc(cc5[nH]c(cc1n2)c(C)c5CCC(=O)O)C(CCC(=O)O)=C4C)c(C)c3C=C [protoporphyrin IX]
- EC50 [1]: ~14 µM

Compound: CC1=C(/C=C/C(C)=C/C=C/C(C)=C/C(=O)O)C(C)(C)CCC1 [retinoic acid]
- EC50 [1]: ~8 µM

- IC50 [3]: ~200 µM
Compound: CHOBIMALT
